One data set deals with bone. The experiment in a line: Bone scintigraphy, pyrophosphate compared to polyphosphate. The data set is classed as in vivo. The settings on record: as compared to polyphosphates, in words. The procedure: The animal was anesthetized with ethylcarbamate after injection and immediately before scintigraphy was carried out. Scintigraphy was carried out after 5 minutes, 1 hour, 2 hours and 4 hours following injection. Two recording methods were applied:
a. conventional scanning,
b. scanning, followed by information treatment for calculating surface activities.

For another data set, the system named is pyrophosphatases. The settings on record: cited from earlier work.

For `O=P(O)(O)OP(=O)(O)O` [pyrophosphate], the “time-period before bone scintigraphy (required by elimination from organs)” value in the data set with bone is recorded as “shorter than in the case of polyphosphates”. Also, the hydrolysis by pyrophosphatases result in the data set with pyrophosphatases is given as “rapid hydrolysis”.

The values are drawn from patent US3931396A, “Method of preparation of a composition having a base of 99^m technetium for diagnosis by scintigraphy” (priority 1974, dated 1976).
